“Also recorded” adds a separate entry of the source.
Columns and labels:
[1] = tested on: GMC101 strain expressing human β-amyloid in muscle; experiment: Alzheimer's disease model: thermodependent paralysis of GMC101 strain; type: in vivo, C. elegans; settings: 1 μg/ml, FIG. 3h, FIG. 4b
Description: (§1) In this model, GFP-labelled dopaminergic neurons die due to α-synuclein toxicity. […] We also tested two different strains of Alzheimer's disease (AD) in worms, where immobility is caused by expression of βA protein in muscle cells.

C. elegans = experiment: Lifespan assays in C. elegans; type: in vivo, Caenorhabditis elegans
Procedure: F2 L4 animals were shifted to 25° C. (t=0). ES treatment started at L4 stage, control and treated plates were prepared fresh and animals transferred each three days until death. Animals lost or dead by non-physiological causes were censured. Survival curves were generated using the product-limit method of Kaplan and Meier. The log-rank (Mantel-Cox) test was used to evaluate differences in survival and […] lower than 0.05 were considered significant.

aged mice [2] = experiment: Object recognition test in aged mice; type: in vivo
Procedure: (§2) The first, object recognition, after training with identical objects, tests the ability to identify different objects exposed together with a familiar one. When this happens, the object discrimination index is positive and higher than 0.1. […] For this purpose, during training, the entry latency to the preferred site is established and the aversive stimulus is administered.

16-month-old mice [3] = experiment: Y maze test; type: in vivo; settings: aged animals, Y maze 6 minutes, FIG. 20
Procedure: (§3) The “Open Field” is a test where the mouse must explore an unknown space for 15 minutes. In this test, both mobility and habituation (cognitive parameter that measures the individual's ability to recognize the environment) can be studied. On the other hand, the “Y maze” test is a test where the mouse explores the maze for 6 minutes. This test evaluates the distance traveled as a measure of mobility and the ability to visit triplets of arms without repeating any of them as a sign of immediate memory.

16-month-old mice [4] = experiment: Open Field test; type: in vivo; settings: FIG. 20; for habituation ability: aged animals, Open Field 15 minutes
Procedure: as §3

aged mice [5] = experiment: Passive avoidance test in aged mice (STM and LTM); type: in vivo
Procedure: as §2
During short- and long-term memory tests (STM and LTM) if the mouse associated the preferred place to the aversive stimulus, the input latency increases with respect to training.

APP-PS1 mice [6] = experiment: Passive avoidance test in APP-PS1 mice; type: in vivo; settings: APP-PS1 mice older than 15-month-old; 3-4 weeks oral
Description: (§4) As STX64 ameliorated neurodegeneration in C. elegans models, we tested the effect of this drug on cognitive alterations provoked by intrahippocampal βA oligomers infusion, an acute AD mammalian model (FIG. 3i). […] To evaluate the effect of STX64 oral treatment on amyloid pathology in a chronic AD mice model, we assessed the effect of 3-4 weeks of STX64 oral treatment on amyloid deposition in the neocortex (the cerebral cortex and the hippocampus) of >15-month-old APP-PS1 mice (FIG. 4k). […] We wondered if this histological improvement correlated with amelioration of cognitive behavioural deficit. For that, we compared cognition capacities in APP-PS1 mice older than 15-month-old treated with vehicle or STX64 for 3-4 weeks.
as §2

daf-2(e1370) = experiment: Developmental arrest (dauer / L1) at 25° C.; type: in vivo, C. elegans; settings: daf-2(e1370) background
Procedure: Worms were growth at 16° C. until L4, then shifted to 25° C. considering this Day 0 of adulthood. The pumping was counted under the Leica stereoscope at 100× magnification for 30 seconds. Data display from two independent biological assays (n=30 per day). Two-tailed Mann-Whitney t-test, ***p=0.0006. e Thrashing in sul-2(gk187) is similar to wild type but is slightly lower in sul-2 (pv17) at 25° C. on day 1 of adulthood. On day 6 at 25° of adulthood, the trashing on sul-2(gk187) is lower than wild type and sul-(pv17), with no differences among these last strains. The population of sul-2(gk17) at day 6 seems to distribute into two different populations, one with almost no thrashing and other with values similar to wild type a sul-2(pv17). […] In this condition, all animals from daf-2(e1370); sul-2(pv17) double mutants arrest at L1 stage. Similarly, more than 50% of animals arrest in L1 stage in daf-2(m577); sul-2(pv17) background, while none of the single mutants show this phenotype. i Example of sul-2(pv17) larvae, dauer larval arrest of daf-2(e1370) or L1 arrest of daf-2(e1370); sul-2 (pv17) and daf-2(e1370); sul-2(gk187) at 25° C. Animals were grown up to L4 at 16° C., then shifted at 25° C., progeny were scored or imaged after 72 hours. Photographs were taken in a Leica scope.

[7] = tested on: CL2006 strain expressing human β-amyloid in muscle; experiment: Alzheimer's disease model: paralysis with age of CL2006 strain; type: in vivo, C. elegans; settings: Log-rank (Mantel-Cox) test p=0.007, FIG. 12g
Description: as §1

aged mice [8] = experiment: Cognition of aged mice under STX64 treatment (FIG. 16-19, headline); type: in vivo
[9] = tested on: polyglutamine repeats fused to YFP (Q40 background, strain AM141); experiment: Huntington neurodegenerative model: number of polyglutamine aggregates; type: in vivo, C. elegans; settings: 1 μg/ml, 5-day old worms
APP-PS1 mice [10] = experiment: β-amyloid deposition in frontal cortex and hippocampus (chronic AD model); type: in vivo; settings: 3-4 weeks oral
Description: as §4

[11] = aged mice, vs vehicle-treated, FIG. 21, listed as STX

For NS(=O)(=O)Oc1ccc2c3c(c(=O)oc2c1)CCCCC3 [STX64], the paralysis phenotype [1] was “the paralysis phenotype is ameliorated; also recorded: delayed paralysis”, the “dependence of the increase of longevity on daf-36” value (C. elegans; daf-36 mutant, 1 μg/ml, FIG. 2m) was “daf-36 is necessary for the increase of longevity; also recorded: DAF-36 is required for the longevity” and the lifespan (C. elegans; sul-2 (gk187) deletion background, 1 μg/ml, UV-killed E. coli, FIG. 1D) was “does not further increase the longevity”. The lifespan (C. elegans; wild type animals, 1 μg/ml, UV-killed E. coli, FIG. 1D) was “increases lifespan”, the longevity (C. elegans; wild type animals, text statement (FIG. 1d, FIG. 7a-c)) was “increase in longevity; also recorded: extends lifespan” and the lifespan (C. elegans; wild type, non-UV E. coli, FIG. 7a) was “increases lifespan of wild type”. The object recognition (aged mice [2]; 3-month treatment in 18 months old mice, FIG. 19B) was “is improved”, the object recognition (aged mice [2]; 3 months treatment in 15 months old mice, FIG. 16B) was “is improved” and the object recognition (aged mice [2]; 6 months treatment in 15 months old mice, FIG. 17B) was “is improved”. For the same compound, the “learning and memory, object recognition test” value (aged mice [2]; [11]) was “showed significantly both learning (STM) and ability to store information (memory); also recorded: significant improvement in both learning (STM) and ability to store information (memory)”, the immediate memory (16-month-old mice [3]) was “tend to improve” and the immediate memory (16-month-old mice [3]; listed as STX) was “are improved”. For the same compound, the “motor ability (mobility)” value (16-month-old mice [4]; 16-month-old mice, Open Field mobility and Y maze distance traveled) was “tend to improve”, the habituation ability (16-month-old mice [4]) was “tend to improve” and the habituation ability (16-month-old mice [4]; listed as STX) was “are improved”. For the same compound, the “short term and long-term memory in passive avoidance test” value (aged mice [5]; 1-month treatment in 18 months old mice, FIG. 18B) was “significant improvement”, the “learning (STM) and memory (LTM), passive avoidance test” value (aged mice [5]; [11]) was “showed significantly both learning (STM) and ability to store information (memory); also recorded: significant improvement in both learning (STM) and ability to store information (memory)” and the “cognitive deficiencies, passive avoidance test” value (APP-PS1 mice [6]) was “completely reverted cognitive deficiencies”. The L1 arrest (daf-2(e1370)) was “phenocopies other sul-2 mutant phenotypes; also recorded: mainly arrests in L1”, the L1 arrest (daf-2(e1370); listed as STX 64) was “increase of L1 arrest” and the paralysis with age [7] was “delayed paralysis; also recorded: ameliorated”. For the same compound, the cognition (aged mice [8]; 1-month treatment in 18 months old mice, 19 months when assayed, FIG. 18) was “improves cognition”, the cognition (aged mice [8]; 3-month treatment in 18 months old mice, 21 months when assayed, FIG. 19) was “improves cognition” and the cognition (aged mice [8]; 3 months treatment in 15 months old mice, FIG. 16) was “improves cognition”. For the same compound, the cognition (aged mice [8]; 6 months treatment in 15 months old mice, 21 months when assayed, FIG. 17) was “improves cognition”, the “number of polyglutamine aggregates” value [9] was “aggregates are reduced; also recorded: reduced the number of aggregates” and the “βA deposition compared with un-treated APP-PS1 mice of 10-12 months of age” value (APP-PS1 mice [10]; APP-PS1 mice older than 15 months) was “reduces βA deposition”. For the same compound, the βA immunoreactive area (APP-PS1 mice [10]; frontal cortex and hippocampus, >15-month-old APP-PS1 mice) was “reduced in both tissues”, the βA plaque density (APP-PS1 mice [10]; frontal cortex and hippocampus, >15-month-old APP-PS1 mice, 0.005 mg/ml in drink water) was “significant reduction” and the βA plaque size (APP-PS1 mice [10]; frontal cortex, >15-month-old APP-PS1 mice, 0.005 mg/ml in drink water) was “significant reduction”.

Source: patent publication US20240108637A1, “EPITE[…] AND/OR A STEROID SULFATASE INHIBITOR FOR USE IN TREATING OR IMPROVING AGE RELATED COGNITIVE IMPAIRMENT” (U[…] DE OLAVIDE, priority 2020, published 2024)
